Assay results from patent US20260184710A1, “CASITAS B-LINEAGE LYMPHOMA PROTOONCOGENE B (CBL-B) DEGRADING COMPOUNDS AND ASSOCIATED METHODS OF USE” (Arvinas Operations, Inc., priority 2022, published 2026).

What was measured:
Cbl-b [1] = biological target: T1, Cbl-b (Homo sapiens, UniProt Q13191); assay: Cbl-b Degradation Method A (FACS, anti-Cbl-b antibody staining); assay type: cell-based; conditions: Cbl-b-HiBit KI Jurkat Cells, incubated at least 20 hours; for DC50: half maximal degradation, read-out: Cbl-b Degredation Method A IC50; for Dmax: Jurkat, maximum degradation observed, read-out: Cbl-b Degredation Method A Dmax (%)
T1 construct: Cbl-b-HiBit KI Jurkat Cells were purchased from Promega; host or cells: Cbl-b-HiBiT knock-in Jurkat cells
T1 sequence (Q13191 whole entry): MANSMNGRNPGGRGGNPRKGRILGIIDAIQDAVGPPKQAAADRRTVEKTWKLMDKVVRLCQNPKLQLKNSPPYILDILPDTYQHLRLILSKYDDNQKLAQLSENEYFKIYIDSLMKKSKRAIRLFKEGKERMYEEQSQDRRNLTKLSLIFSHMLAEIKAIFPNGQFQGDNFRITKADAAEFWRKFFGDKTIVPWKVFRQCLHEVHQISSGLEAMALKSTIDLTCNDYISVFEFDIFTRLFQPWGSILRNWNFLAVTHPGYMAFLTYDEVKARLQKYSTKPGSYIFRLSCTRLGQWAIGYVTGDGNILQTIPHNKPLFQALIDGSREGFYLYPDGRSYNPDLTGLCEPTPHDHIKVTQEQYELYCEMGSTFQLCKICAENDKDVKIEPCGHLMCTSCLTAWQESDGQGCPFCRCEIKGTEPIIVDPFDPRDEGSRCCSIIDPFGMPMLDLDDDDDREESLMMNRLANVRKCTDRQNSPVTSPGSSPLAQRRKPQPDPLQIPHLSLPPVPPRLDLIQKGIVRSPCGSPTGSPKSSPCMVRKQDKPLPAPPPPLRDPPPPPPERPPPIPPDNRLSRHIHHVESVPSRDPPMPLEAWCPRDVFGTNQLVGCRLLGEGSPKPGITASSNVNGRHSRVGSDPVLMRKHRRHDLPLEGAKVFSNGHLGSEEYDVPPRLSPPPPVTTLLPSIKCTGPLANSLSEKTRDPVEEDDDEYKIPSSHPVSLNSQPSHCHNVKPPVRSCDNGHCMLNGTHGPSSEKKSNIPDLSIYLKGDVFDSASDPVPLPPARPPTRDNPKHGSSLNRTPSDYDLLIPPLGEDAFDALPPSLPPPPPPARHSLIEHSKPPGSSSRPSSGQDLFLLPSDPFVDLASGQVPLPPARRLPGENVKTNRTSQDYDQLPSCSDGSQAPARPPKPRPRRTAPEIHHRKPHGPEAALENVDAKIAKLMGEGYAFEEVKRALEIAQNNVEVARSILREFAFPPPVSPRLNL
Method in brief: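 Cbl-b-HiBit KI Jurkat cells treated with compound for at least 20 h at 37 °C, then fixed, permeabilized and stained with anti-Cbl-b antibody plus anti-rabbit AF488 secondary. Cbl-b levels read by FACS; DC50 and Dmax (percent of control) derived.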

Cbl-b [2] = biological target: T1, Cbl-b; assay: Cbl-b Degradation Method B (Nano-Glo HiBiT lytic detection); assay type: cell-based; conditions: Cbl-b-HiBit KI Jurkat Cells, incubated at least 6-24 hours; for DC50: half maximal degradation, read-out: Cbl-b Degredation Method B IC50; for Dmax: maximum degradation observed, read-out: Cbl-b Degredation Method B Dmax (%)
Method in brief: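 Cbl-b-HiBiT knock-in Jurkat cells (20,000/well) were treated after ~24 h plating with an 11-point 1:3 series for 6-24 h at 37° C. Remaining Cbl-b measured by Nano-Glo HiBiT lytic luminescence. DC50 and Dmax expressed as % of control.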

DC50 (Cbl-b [1]) [nM]	Dmax (Cbl-b [1]) [%]	DC50 (Cbl-b [2]) [nM]	Dmax (Cbl-b [2]) [%]	SMILES
5 to 50	35 to 70	< 5	35 to 70	CC1c2nc(N3CCC(O[C@H]4CC[C@H](CN5C[C@H]6C[C@@H]5CN6Cc5cc6c(c(C(F)(F)F)c5)CN(c5cccc([C@]7(Cc8nncn8C)C[C@@H](C#N)C7)c5)C6=O)CC4)CC3)ccc2C(=O)N1C1CCC(=O)NC1=O (stereo partly drawn) [Example 217, (1r,3r)-3-[(4-methyl-4H-1,2,4-triazol-3-yl)methyl]-3-[3-(1-oxo-6-{[(1R,4R)-5-{[(1r,4r)-4-({1-[6-(2,6-dioxopiperidin-3-yl)-7-methyl-5-oxo-5H,6H,7H-pyrrolo[3,4-b]pyridin-2-yl]piperidin-4-yl}oxy)cyclohexyl]methyl}-2,5-diazabicyclo[2.2.1]heptan-2-yl]methyl}-4-(trifluoromethyl)-2,3-dihydro-1H-isoindol-2-yl)phenyl]cyclobutane-1-carbonitrile]
5 to 50	35 to 70	< 5	35 to 70	Cc1cc(N2CCC(CN3CCC4(CCN(c5cc6c(c(C(F)(F)F)c5)CN(c5cccc([C@]7(Cc8nncn8C)C[C@@H](C#N)C7)c5)C6=O)C4)C3)CC2)c(F)c2c1C(=O)N(C1CCC(=O)NC1=O)C2 (some centres unmarked) [Example 177, (1r,3r)-3-(3-{6-[7-({1-[2-(2,6-dioxopiperidin-3-yl)-4-fluoro-7-methyl-1-oxo-2,3-dihydro-1H-isoindol-5-yl]piperidin-4-yl}methyl)-2,7-diazaspiro[4.4]nonan-2-yl]-1-oxo-4-(trifluoromethyl)-2,3-dihydro-1H-isoindol-2-yl}phenyl)-3-[(4-methyl-4H-1,2,4-triazol-3-yl)methyl]cyclobutane-1-carbonitrile]
